Tests used:
ICAM-2/CD102 = ICAM-2/CD102 (Homo sapiens, UniProt P13598); test: ELISA-type plate binding assay, ICAM-2; details: 1% gelatin/PBS buffer
Description: (§1) To address this hypothesis, an ELISA-type binding assay was developed in which neutrophil ligands (LFA-1 and MAC-1/CR3) and […] cell ligands (ICAM-1/CD54 and ICAM-2/CD102) were bound to microtiter plates. Plates were then incubated with increasing amounts of PA-dPEG24 in 1% gelatin/PBS buffer probed with antibody to the peptide and developed.

mCH50 = mCH50 ex vivo on plasma of two-hit ALI rats; format: in vivo, rat; details: 10 mg/kg IV; compared with saline treated control
human neutrophils [1] = test: Human neutrophil adhesion to glass slides with or without fibrinogen; format: cell-based; details: increasing concentrations, 2.5 hours
Description: To ascertain whether the binding of PA-dPEG24 has an effect on the ability of neutrophils to adhere to surfaces in vitro, purified human neutrophils were incubated with increasing concentrations of PA-dPEG24, washed twice with PBS, placed on the glass slides, and then incubated in a humidified 37° C. incubator in the presence of 5% C02 for 2.5 hours. Slides were subsequently stained with DAPI (1:1000 in 2% BSA) followed by imaging at 20× by fluorescence microscopy. Quantification of the amount of cell staining was performed using ImageJ analysis (NIH). […] To ascertain if adherence of neutrophils was altered on glass slides pre-coated with fibrinogen, purified human neutrophils were incubated with increasing concentrations of PA-dPEG24, washed twice with PBS, placed on the fibrinogen-coated glass slides, and then incubated in a humidified 37° C. incubator in the presence of 5% C02 for 2.5 hours. Slides were subsequently stained with DAPI (1:1000 in 2% BSA) followed by imaging at 20× by fluorescence microscopy. Quantification of the amount of cell staining was performed using ImageJ analysis (NIH).

MPO = test: OVA/LPS rat asthma model, MPO in BALF (colorimetric); details: vs Day 24 asthma animals
[2] = system: classical complement pathway mediated hemolysis; test: Free hemoglobin in plasma (intravascular hemolysis), two-hit ALI rat model; format: in vivo; details: 10 mg/kg IV; compared with saline treatment
Description: Complement inhibition in the bloodstream of rats in the 2-hit ALI model was measured by two different methods. The first method measured free hemoglobin in the plasma of the rats over time, by measuring intravascular hemolysis of the transfused incompatible erythrocytes.

[3] = system: human umbilical vascular endothelial cell (HUVEC); test: HUVEC basement membrane matrix (Geltrex) culture, LPS-stimulated angiogenesis; format: cell-based; details: no CellTrace dye, compared with 3-dimensional system
Description: FIG. 36. […] Cells were applied to a layer of basement membrane matrix containing LPS to stimulate angiogenesis and cultured for 18 hours at 37° C. Angiogenesis (nascent tube formation and sprouting) was observed by light microscopy.

human neutrophils [4] = test: Immunofluorescence binding to purified human neutrophils; format: cell-based; details: 1 mM, 30 minutes
Description: To evaluate binding of PA-dPEG24 to neutrophils, purified human neutrophils were cytospun onto glass slides. PA-dPEG24 (1 mM) was then added to one set of slides for 30 minutes and the slides were subsequently washed with PBS. The cells were then incubated with an antibody to PA-dPEG24 (1:1,000 dilution of Chicken Anti-PIC1) followed by a labeled secondary antibody (1:2,000 dilution of Anti-Chicken, Alexa Fluor 488) and counterstained with DAPI. Cells were then visualized by microscopy. In each case, DAPI staining confirmed that the cells were present on the slides and intact.

[5] = system: VEGF binding to VEGFR-2 (KDR); test: VEGF Bioassay (Promega), bioluminescent reporter cells; details: increasing peptide concentrations, then human VEGF stimulation
LFA-1 = LFA-1 (Homo sapiens, UniProt P05107+P20701); test: ELISA-type plate binding assay, LFA-1
Sequence of LFA-1 (P20701 26-1170): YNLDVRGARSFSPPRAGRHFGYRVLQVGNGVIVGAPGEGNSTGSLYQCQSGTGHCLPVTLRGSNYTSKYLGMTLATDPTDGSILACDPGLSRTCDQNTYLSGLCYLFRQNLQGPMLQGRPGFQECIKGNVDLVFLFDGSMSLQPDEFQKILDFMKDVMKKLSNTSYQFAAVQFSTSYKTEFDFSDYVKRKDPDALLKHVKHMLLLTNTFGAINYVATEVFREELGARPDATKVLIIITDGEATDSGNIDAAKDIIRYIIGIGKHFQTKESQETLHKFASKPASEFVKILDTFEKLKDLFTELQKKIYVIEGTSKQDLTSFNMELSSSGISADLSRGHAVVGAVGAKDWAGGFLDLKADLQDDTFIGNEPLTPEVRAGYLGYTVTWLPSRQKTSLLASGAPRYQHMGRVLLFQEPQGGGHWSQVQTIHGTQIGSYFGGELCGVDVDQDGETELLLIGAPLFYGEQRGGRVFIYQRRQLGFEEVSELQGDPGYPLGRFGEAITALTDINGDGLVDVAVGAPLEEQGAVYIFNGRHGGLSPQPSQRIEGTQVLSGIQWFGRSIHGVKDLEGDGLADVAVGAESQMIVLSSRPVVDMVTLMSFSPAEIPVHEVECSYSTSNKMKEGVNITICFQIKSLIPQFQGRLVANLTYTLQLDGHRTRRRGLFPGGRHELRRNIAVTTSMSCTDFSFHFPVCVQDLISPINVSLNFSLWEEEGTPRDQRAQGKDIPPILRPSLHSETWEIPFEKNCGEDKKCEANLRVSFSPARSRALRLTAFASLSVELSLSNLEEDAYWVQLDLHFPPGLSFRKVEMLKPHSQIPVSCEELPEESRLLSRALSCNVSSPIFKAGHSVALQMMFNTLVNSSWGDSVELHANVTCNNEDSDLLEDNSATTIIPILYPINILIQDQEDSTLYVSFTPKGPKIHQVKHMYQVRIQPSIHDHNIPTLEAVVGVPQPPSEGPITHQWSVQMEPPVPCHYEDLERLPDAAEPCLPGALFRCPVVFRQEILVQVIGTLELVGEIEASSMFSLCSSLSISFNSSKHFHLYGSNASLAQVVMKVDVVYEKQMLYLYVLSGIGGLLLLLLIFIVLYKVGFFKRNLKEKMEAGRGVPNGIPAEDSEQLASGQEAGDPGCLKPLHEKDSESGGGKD
Sequence of LFA-1 (P05107 23-769): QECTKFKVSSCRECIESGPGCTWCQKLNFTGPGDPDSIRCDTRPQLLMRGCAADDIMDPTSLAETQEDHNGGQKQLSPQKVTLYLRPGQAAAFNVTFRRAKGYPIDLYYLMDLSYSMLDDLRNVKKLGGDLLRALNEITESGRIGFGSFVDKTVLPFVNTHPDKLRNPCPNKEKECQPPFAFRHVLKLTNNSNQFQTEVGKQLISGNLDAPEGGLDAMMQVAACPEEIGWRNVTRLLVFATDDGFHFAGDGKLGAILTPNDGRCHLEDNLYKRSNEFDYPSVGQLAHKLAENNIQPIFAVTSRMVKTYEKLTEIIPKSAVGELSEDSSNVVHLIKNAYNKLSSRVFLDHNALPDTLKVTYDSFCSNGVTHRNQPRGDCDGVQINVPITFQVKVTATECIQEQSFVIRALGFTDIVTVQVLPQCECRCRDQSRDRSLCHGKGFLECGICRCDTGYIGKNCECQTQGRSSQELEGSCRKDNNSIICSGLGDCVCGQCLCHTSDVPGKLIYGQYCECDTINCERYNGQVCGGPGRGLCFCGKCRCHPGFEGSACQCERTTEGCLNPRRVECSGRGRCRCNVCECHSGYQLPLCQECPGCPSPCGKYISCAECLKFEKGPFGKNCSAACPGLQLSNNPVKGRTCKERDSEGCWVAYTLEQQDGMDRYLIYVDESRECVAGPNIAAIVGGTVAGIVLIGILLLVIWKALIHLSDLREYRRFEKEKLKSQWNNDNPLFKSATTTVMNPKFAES
Description: as §1
To ascertain if PA-dPEG24 could bind ICAM-1 and LFA-1 in plasma, these receptors were coated onto microtiter plates and then incubated with human plasma containing increasing amounts of PA-dPEG24, probed with antibody to the peptide and then developed.

[6] = Pharmacokinetics, metabolite profiles and excretion of [14C]-PIC1-dPEG24 after single IV dose; format: in vivo, rat; details: for Adjusted Peak Distribution (ROI %) in Rat Plasma: AUC0-24 hr pooled plasma, integrated together: M89/M160, M1444/M1701/M1573, M1288/M1217, M2244/M2357/M2470, M2768/PIC1-dPEG24; for estimated mean concentration within 0-24 hr in AUC0-24 hr pooled plasma: parent value = PIC1-dPEG24 and M2768 together
Description: […]. The six rats in Group 3 and Group 4 were further divided into two subgroups for serial blood collections at 10, 30 min and 1, 2, 3, 4, 6, 8, 24, and 48 hr. Blood was pooled by equal volume across animals at each time point, and aliquots (˜200 μL) of pooled blood were removed at each time point for total radioactivity, and the rest of blood samples were centrifuged to obtain plasma. Bile, urine, feces, and cage wash samples were collected up to 72 hr in bile duct cannulated (BDC) rats, and up to 168 hr in intact rats, and terminal blood samples were collected at the end of study (72 hr or 168 hr post-doses). The total radioactivity concentrations in the excreta, blood and plasma were determined by homogenization, combustion and/or liquid scintillation counting (LSC). The metabolite profiles and structure characterization were conducted in pooled plasma, urine, and bile samples using LC-UV/MS as well as radioactive detection. […].
The radioactive profiles of rat plasma samples for the low dose group and the high dose group were qualitatively similar.

free DNA = test: OVA/LPS rat asthma model, free DNA in BALF (PicoGreen); details: prophylactic or rescue 160 mg/kg IV; vs asthma rats Days 22-24; not back to baseline
ICAM-5 = ICAM-5 (Homo sapiens, UniProt Q9UMF0); test: ELISA-type plate binding assay, ICAM-5; details: buffer
Sequence of ICAM-5 (Q9UMF0 32-924): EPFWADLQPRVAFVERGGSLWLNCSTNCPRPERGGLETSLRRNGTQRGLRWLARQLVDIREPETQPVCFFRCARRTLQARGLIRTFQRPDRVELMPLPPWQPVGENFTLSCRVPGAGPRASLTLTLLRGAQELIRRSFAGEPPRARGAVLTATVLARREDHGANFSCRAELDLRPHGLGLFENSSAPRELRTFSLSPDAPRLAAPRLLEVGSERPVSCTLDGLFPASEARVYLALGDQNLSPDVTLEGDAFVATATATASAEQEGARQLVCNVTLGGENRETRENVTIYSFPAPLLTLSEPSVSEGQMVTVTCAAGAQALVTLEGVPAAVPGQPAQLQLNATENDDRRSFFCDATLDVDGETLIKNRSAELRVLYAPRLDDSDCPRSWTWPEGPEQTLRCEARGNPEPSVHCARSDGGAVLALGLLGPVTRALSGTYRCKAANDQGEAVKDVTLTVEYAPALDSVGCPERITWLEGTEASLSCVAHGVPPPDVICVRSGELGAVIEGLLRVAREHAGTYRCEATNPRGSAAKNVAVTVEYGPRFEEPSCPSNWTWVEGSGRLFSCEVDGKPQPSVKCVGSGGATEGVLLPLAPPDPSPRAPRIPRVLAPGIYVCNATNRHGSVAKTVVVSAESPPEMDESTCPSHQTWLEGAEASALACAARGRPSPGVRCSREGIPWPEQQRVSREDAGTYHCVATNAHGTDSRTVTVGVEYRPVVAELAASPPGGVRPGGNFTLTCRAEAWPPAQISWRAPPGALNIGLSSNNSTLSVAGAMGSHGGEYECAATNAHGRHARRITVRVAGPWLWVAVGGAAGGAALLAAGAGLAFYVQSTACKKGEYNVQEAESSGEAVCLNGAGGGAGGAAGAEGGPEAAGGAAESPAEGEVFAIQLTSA

C1q = C1q (Homo sapiens, UniProt P02745+P02746+P02747); test: ELISA-type plate binding assay, C1q (positive control ligand)
Sequence of C1q (P02745 23-245): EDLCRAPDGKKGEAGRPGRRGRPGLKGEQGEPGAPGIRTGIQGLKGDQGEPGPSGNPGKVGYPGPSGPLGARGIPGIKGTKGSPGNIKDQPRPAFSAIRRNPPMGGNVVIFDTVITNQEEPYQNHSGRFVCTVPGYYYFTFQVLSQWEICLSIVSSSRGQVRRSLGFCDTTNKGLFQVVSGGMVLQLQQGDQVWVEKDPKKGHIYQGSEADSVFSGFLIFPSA
Sequence of C1q (P02746 28-253): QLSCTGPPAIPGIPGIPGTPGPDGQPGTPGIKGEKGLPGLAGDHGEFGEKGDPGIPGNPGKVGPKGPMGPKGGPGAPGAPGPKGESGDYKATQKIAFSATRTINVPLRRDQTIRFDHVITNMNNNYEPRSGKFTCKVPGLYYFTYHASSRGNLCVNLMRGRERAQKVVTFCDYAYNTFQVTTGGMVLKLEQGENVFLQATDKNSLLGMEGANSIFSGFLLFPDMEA
Sequence of C1q (P02747 29-245): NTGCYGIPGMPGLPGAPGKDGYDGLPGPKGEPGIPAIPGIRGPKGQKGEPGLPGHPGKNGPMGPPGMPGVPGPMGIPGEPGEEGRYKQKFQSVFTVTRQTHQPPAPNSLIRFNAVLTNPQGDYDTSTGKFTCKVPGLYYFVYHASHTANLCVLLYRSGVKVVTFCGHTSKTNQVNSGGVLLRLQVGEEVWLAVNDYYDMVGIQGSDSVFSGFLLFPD

[7] = bolus IV 400 mg/kg; four hours after infusion; male Wistar rats

Sequence of ICAM-2/CD102 (P13598 25-275): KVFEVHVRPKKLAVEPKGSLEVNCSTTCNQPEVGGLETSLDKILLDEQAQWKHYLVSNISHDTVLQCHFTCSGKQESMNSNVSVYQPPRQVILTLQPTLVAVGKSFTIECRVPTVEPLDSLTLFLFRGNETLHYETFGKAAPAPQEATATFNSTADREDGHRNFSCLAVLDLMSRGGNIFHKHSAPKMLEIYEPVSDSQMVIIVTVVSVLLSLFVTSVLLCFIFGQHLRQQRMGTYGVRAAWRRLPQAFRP

CC[C@H](C)[C@H](N)C(=O)N[C@@H](C)C(=O)N[C@@H](CC(C)C)C(=O)N[C@H](C(=O)N[C@@H](CC(C)C)C(=O)N[C@@H](CCC(=O)O)C(=O)N1CCC[C@H]1C(=O)N[C@H](C(=O)N[C@@H](CS)C(=O)N[C@@H](CS)C(=O)N[C@@H](CCC(N)=O)C(=O)N[C@@H](CCC(=O)O)C(=O)N[C@@H](CCCNC(=N)N)C(=O)N[C@@H](C)C(=O)N[C@@H](C)C(=O)NCCOCCOCCOCCOCCOCCOCCOCCOCCOCCOCCOCCOCCOCCOCCOCCOCCOCCOCCOCCOCCOCCOCCOCCOCCC(=O)O)[C@@H](C)CC)[C@@H](C)CC [RLS-0071]
binding to ICAM-2 (ICAM-2/CD102): but not ICAM-2
inhibition of mCH50 (mCH50): did not inhibit mCH50
neutrophil adherence to fibrinogen-coated glass slides (human neutrophils [1]; fibrinogen-coated glass): dose-dependently decreased neutrophil adherence
number of neutrophils adhered to glass slides (human neutrophils [1]; untreated glass): dose-dependently reduced the number of cells adhered to the slides
MPO levels in the BALF (MPO; prophylactic 160 mg/kg IV, p=0.12): reduction in MPO levels that did not reach statistical significance
MPO levels in the BALF (MPO; rescue 160 mg/kg IV, P=0.05): significant reduction in MPO levels
inhibition of intravascular hemolysis (free hemoglobin in plasma) [2]: no inhibition of classical complement pathway mediated hemolysis
angiogenesis (sprouting and tube formation) [3]: same results
binding to neutrophil cell surface (immunofluorescence) (human neutrophils [4]): fluorescence signal demonstrating direct binding of the peptide to the cell surface
inhibition of VEGF binding to VEGFR-2 and intracellular signaling (luminescence) [5]: dose-dependent inhibition of intracellular signaling
binding to LFA-1 (LFA-1; 1% gelatin/PBS buffer): bound dose-dependently
binding to LFA-1 (LFA-1; in human plasma): bound dose-dependently
Adjusted Peak Distribution (ROI %) in Rat Plasma ([6]; Group 3 (20 mg/kg IV)): about 12%
Adjusted Peak Distribution (ROI %) in Rat Plasma ([6]; Group 4 (200 mg/kg IV)): ~16%
estimated mean concentration within 0-24 hr in AUC0-24 hr pooled plasma ([6]; high dose group (200 mg/kg IV)): 2225 ng Eq/g
estimated mean concentration within 0-24 hr in AUC0-24 hr pooled plasma ([6]; low dose group (20 mg/kg IV)): 187 ng Eq/g
stability in diluted dose solution in water (6-day storage at -20 °C freezer, M2768 detected): not stable
stability in solutions, rat urine, and/or rat plasma (decomposes to M2768 by dehydrogenation): not stable
stability in rat plasma and urine (spiked into control blank rat plasma and pre-dose urine, or decomposition during sample processing): not stable in rat plasma/urine
free DNA in the BALF (free DNA): a decrease in free DNA was observed
binding to ICAM-5 (ICAM-5): superior binding to ICAM-5
binding to C1q (C1q; 1% gelatin/PBS buffer): bound PA-dPEG24 in a dose-dependent manner
binding to C1q (C1q; in human plasma): bound PA-dPEG24 in a dose-dependent manner
staining for peptide in kidney tissue [7]: dark staining on the glomerulus and tubules
staining for peptide in liver tissue [7]: discrete staining

From patent US20240010681A1, “PEPTIDES AND METHODS OF USE” (REALTA LIFE SCIENCES, INC., priority 2020, published 2024)
